Where two headings read alike, the source gives them in different places.
Experiments:
[1] = Binding to pre-loaded bone slices / hydroxyapatite after washing; conditions: pre-loaded whale dentine or osteologic slides, unbound drug washed away
Excerpt: (§1) In a separate experiment, pre-loaded bone slices (whale dentine) or commercial forms of hydroxyapatite (osteologic slides) with either free γ-tocopherol (γToc) or γ-tocopherol-bpp(OEt) (BP-γToc) and then washed away unbound drug.

[2] = tested on: osteoclasts from RAW264.7 and Human PBMC; assay: Resorption on pre-loaded whale dentine / osteologic slides (pit formation); type: cell-based, murine
Excerpt: Zoledronic acid was used as control.
(§2) Human peripheral blood mononuclear cells (PBMCs) and the RAW264.7 murine monocytic cell line were differentiated into osteoclast-like cells in the presence of RANKL plus M-CSF and have been used as model systems of osteoclastogenesis. Osteoclast-like cells, from Giant Cell Tumours (GCT) of bone specimens from three independent donors were used to investigate the effect of compounds of the invention on the bone resorbing activity of mature osteoclasts.
Human PBMCs were isolated from normal healthy donors isolated from the buffy coats acquired from the local Red Cross Blood Service. The cells were diluted in Hanks Balanced Salt Solution (HBSS) and separated by gradient centrifugation with Lymphoprep™. Isolated cells were resuspended in α MOD, 10% FCS, L-glutamine (2 mM), Hepes (20 mM), supplemented with M-CSF (25 ng/ml), 1α,25(OH)2 vitamin D3 (10 nM) and dexamethasone (10 nM) and plated into 96-well plates containing whale dentine slices, for the bone resorption assay or directly into wells for TRAP staining. The following day, media were removed and replaced with media as above, supplemented with RANKL (100 ng/ml) in the presence or absence of increasing concentrations of compounds of the invention. Medium and treatments were replaced every three days.
(§3) Cells were cultured in 96-well plates at a density of 1×10^4 cells/well in DMEM medium with 10% FCS, L-glutamine (2 mM) and Hepes (20 mM). Cells were allowed to attach for 4 hrs before treatment with RANKL (50 ng/ml) in the presence or absence of increasing concentrations of compounds of the invention as above. Medium and treatments were replaced on day three and TRAP activity determined on day 5. The overall number of viable cells were determined by crystal violet staining.
Whale dentine slices will be washed in extran, rinsed with distilled water, washed in 70% ethanol and dried overnight. The dentine slices mounted on stubs, carbon-coated and visualised on a Philips XL-20 scanning electron microscope, (SEM) as previously described. Images will be analysed using ImageQuant software and the area of resorption determined for each dentine slice (quadruplicate dentine slices for each treatment). Results are expected to be average resorption area +/− standard errors of the mean (SEM) and the significant differences between treatments will be determined using Students t-tests (2-tailed, unpaired).
as §1

RAW264.7 cells = assay: In vitro osteoclastogenesis of RAW264.7 (TRAP staining); type: cell-based, murine; conditions: RANKL-differentiated; γ-tocopherol at 1 μg/ml and 201 μg/ml; bpp(OEt) at increasing concentrations; FIG. 4
Method: as §2, §3
Osteoclast cultures established by the differentiation of RAW264.7 cells in wells were fixed and stained for tartrate resistant acid phosphatase (TRAP) as recommended by the manufacturer on days 4 and 5. TRAP positive cells were visualised by light microscopy and images taken with a digital camera.

[3] = tested on: breast and prostate cancer metastatic cell lines; assay: Dose response of cell viability of breast and prostate cancer cells (FIG. 1); type: cell-based
MDA-MB231TXSA cells = assay: Cell viability, crystal violet colorimetric assay; type: cell-based; conditions: 72 hrs; for IC50: tested at 0.02-0.1 mM, read-out: IC50 values MB231-TXSA
Method: (§4) Immortalised osteolytic metastatic breast cancer cell lines, a) hormone-dependent MCF-7 and b) hormone refractory MDA-MB231, together with the daughter line MDA-MB231TXSA were incubated with 5 gradual concentrations of compounds of the invention as described below. Cell viability was assessed with the crystal violet colorimetric assay and IC50s were evaluated.
(§5) Medium was removed from cell cultures and cells were fixed with 4% v/v formaldehyde for 5 mins at room temperature. Formalin was then removed and CV added for 10 mins at room temperature followed by several washes with dsH2O. Samples were allowed to dry overnight. The following day, 10% acetic acid was added for 15 mins and optical density at 620 nm was measured. Optical densities versus compound concentrations were plotted in graphs and IC50s estimated by linear regression analysis using the WorkOut (VictorX4) software.
(§6) MCF-7, MDA-MB231 and MDA-MB231TXSA cells were seeded in 96-well-plates and allowed to attach overnight. The following day media were replaced with fresh media containing the following compounds: Both free tetraethyl methylbisphosphonate (bpp(OEt)) and bpp(OEt) in 1:1 combination with the free chromanol and the biphosphonate conjugates were tested at 5 gradual concentrations of: 0.02, 0.04, 0.06, 0.08 and 0.1 mM.
(§7) Cells were cultured in the presence of the compounds for 72 hrs and viability was assessed on day 3 by crystal violet assay. The cell lines were selected for their high bone metastatic potential. The fluorescently transfected line MB231TXSA, derived from line MB231 is also used in animal studies (WP7).

MDA-MB231 cells = assay: Cell viability, crystal violet colorimetric assay; type: cell-based; conditions: 72 hrs; for IC50: tested at 0.02-0.1 mM; for EC50: * denotes EC50 value, read-out: EC50 value (starred) MB231
Method: as §4, §5, §6, §7

[4] = tested on: metastatic breast cancer cell lines (MCF-7, MDA-MB231, MDA-MB231TXSA); assay: Cell viability / antiproliferative activity, breast cancer lines; type: cell-based; conditions: for antiproliferative activity compared with bpp(OEt): esterified compounds and 1:1 mixtures; for effect on cell viability: viability assays and IC50s, 72 hrs
Method: as §4, §5, §6, §7

MCF-7 cells = assay: Cell viability, crystal violet colorimetric assay; type: cell-based; conditions: 72 hrs; for IC50: tested at 0.02-0.1 mM, unstarred values; for EC50: * denotes EC50 value, read-out: EC50 value (starred) MCF-7
Method: as §4, §5
MCF-7, MDA-MB231 and MDA-MB231TXSA cells were seeded in 96-well-plates and allowed to attach overnight. […]
as §7

[5] = tested on: Caspase-3 activity in MB231 breast cancer cell-line; assay: Caspase-3 enzymatic activity assay; type: cell-based; conditions: IC50 concentrations, two-way ANOVA with Bonferroni post-tests
Method: Cells were grown in 12 well-plates in the presence of IC50 concentrations of compounds of the invention or culture medium with 0.1% v/v ethanol as control and were washed with PBS and incubated with lysis buffer for 15 mins at 4° C. Lysates were centrifuged at 15000 g. 20 μl of each lysate suspension was incubated with 100 μl of protease buffer containing 10 μM of fluorescent substrate zDEVD-AFC (3 samples/lysate) for 4 hrs at room temperature. Caspase-3 enzymatic activity was measured every 1 hr by fluorescence with excitation at 405 nm and emission at 515/30 nm.
Fluorescence measurements were plotted in graphs against time and were statistically analysed by two-way ANOVA followed by Bonferroni post-tests to identify statistically significant apoptotic activities of compounds of the invention (see FIG. 3).

[6] = tested on: metastatic breast cancer lines; assay: DAPI staining of apoptotic nuclei; type: cell-based; conditions: cells treated with IC50 concentrations
Method: Compounds with statistically significant decrease in viability were further examined to determine whether their effect was due to induced apoptosis based on morphologic criteria in DAPI-stained cells. […] Pro-apoptotic efficacies were compared using two-way analysis of Variance (ANOVA) followed by Bonferroni post-tests.
Growth medium was removed and cells were fixed with 4% v/v formaldehyde in PBS for 5 mins at room temperature. Fixed cells were washed once with PBS and incubated with 1 μg/ml DAPI in PBS for 20 mins at 37° C. Rinsed with PBS and mounted in mounting medium. Coverslips were sealed on glass slides and examined for the presence of apoptotic cells by fluorescence microscopy (see FIG. 2).

Compound	IC50 (MDA-MB231TXSA cells; Exp.3) [µM]	IC50 (MDA-MB231TXSA cells; Exp.4) [µM]	EC50 (MCF-7 cells; Exp.3) [µM]	IC50 (MDA-MB231 cells; Exp.3, unstarred values) [µM]	IC50 (MCF-7 cells; Exp.4) [µM]	IC50 (MDA-MB231 cells; Exp.4, unstarred values) [µM]	cell viability on breast and prostate cancer metastatic cell lines [3]	IC50 (MDA-MB231TXSA cells; Exp.1) [µM]	IC50 (MDA-MB231 cells; Exp.1, unstarred values) [µM]	IC50 (MDA-MB231 cells; Exp.2) [µM]	EC50 (MDA-MB231 cells; Exp.4) [µM]	antiproliferative activity compared with bpp(OEt) [4]	effect on cell viability [4]	other results
CCOP(=O)(OCC)C(CCC(=O)O)P(=O)(OCC)OCC [bpp(OEt), Tetra Ethyl 4,4-bis(phosphono)-butanoic Acid, reference compound]	136	179	365				without effect	441	106	242	710			binding to bone substrate / bone mineral [1]: high affinity for bone; anti-resorptive activity of the free bisphosphonate [2]: minimal anti-resorptive activity; osteoclastogenesis of Raw264.7 (RAW264.7 cells): inhibited osteoclastogenesis in a dose-dependent manner; IC50 (MDA-MB231TXSA cells; Exp.2, unstarred values): 129 µM; EC50 (MDA-MB231 cells; Exp.3): 74.2 µM; antiproliferative/proapoptotic effect in metastatic breast cancer cell-lines [4]: did not have antiproliferative/proapoptotic effect; IC50 (MCF-7 cells; Exp.1): 107 µM; EC50 (MCF-7 cells; Exp.2): 143 µM; EC50 (MCF-7 cells; Exp.4): 1980 µM
CC(C)=CCC/C(C)=C/CC/C(C)=C/CC[C@]1(C)CCc2cc(O)c(C)c(C)c2O1 [γ-Tocotrienol]							inhibited in a dose-dependent manner							
α-tocopheryl Bisphosphonic Acid [α-toc-bpp(OH)]	88.8	75.9	351	61.6	64.1	238						increased	reduced cell viability	
γ-tocopheryl Diphosphonic Acid [γ-toc-bpp(OH)]								92	172	66.2		increased	reduced cell viability	pro-apoptotic activity (Caspase-3 activity) [5]: did not show significant pro-apoptotic activity; apoptotic nuclei (condensed chromatin, fractured nuclei) by DAPI staining [6]: increased numbers of apoptotic nuclei; EC50 (MDA-MB231TXSA cells; Exp.2, * denotes EC50 value, read-out: EC50 value (starred) MB231-TXSA): 182 µM; antiproliferative activity compared with γ-tocopherol ([4]; upon esterification of γ-tocopherol): increased; EC50 (MCF-7 cells; Exp.1): 303 µM; IC50 (MCF-7 cells; Exp.2): 65.1 µM

Continued, in another order:

IC50 (MDA-MB231TXSA cells; Exp.3) [µM]	IC50 (MDA-MB231TXSA cells; Exp.4) [µM]	EC50 (MCF-7 cells; Exp.3) [µM]	IC50 (MDA-MB231 cells; Exp.3, unstarred values) [µM]	IC50 (MCF-7 cells; Exp.4) [µM]	IC50 (MDA-MB231 cells; Exp.4, unstarred values) [µM]	Compound	cell viability on breast and prostate cancer metastatic cell lines [3]	IC50 (MDA-MB231TXSA cells; Exp.1) [µM]	IC50 (MDA-MB231 cells; Exp.1, unstarred values) [µM]	IC50 (MDA-MB231 cells; Exp.2) [µM]	EC50 (MDA-MB231 cells; Exp.4) [µM]	antiproliferative activity compared with bpp(OEt) [4]	effect on cell viability [4]	other results
137	88.7		103	54.5		Cc1c(C)c2c(c(C)c1O)CC[C@@](C)(CCC[C@H](C)CCC[C@H](C)CCCC(C)C)O2 [α-toc, α-tocopherol, reference compound]					131			IC50 (MCF-7 cells; Exp.3): 54.7 µM
98.1	73	152	128	76.8	281	CCOP(=O)(OCC)C(CCC(=O)Oc1c(C)c(C)c2c(c1C)CCC(C)(CCCC(C)CCCC(C)CCCC(C)C)O2)P(=O)(OCC)OCC (stereo not drawn) [α-toc-bpp(OEt), α-Tocopheryl Bisphosphonic Ester]						increased	reduced cell viability	

Reference: patent US11400160B2, “Multifunctional conjugates” (E.P.O.S IASIS Research and Development Limited, priority 2017, dated 2022)
